How the values were obtained:
Format in all cases: cell-based
[1] = system: Colorectal carcinoma HCT116 cells; assay: HCT116 + ETR1 cell death assay (MTT, 72 hours); conditions: with HGS ETR1 40 ng/ml
Protocol: Colorectal carcinoma HCT116 cells were cultured as monolayers in 96 well plates at a density of 2000 cells per well in McCoy's 5a medium (HyClone) supplemented with 2.2 g/L sodium bicarbonate (Gibco), 10% FBS (HyClone) and 1% penecillin/streptomycin (HyClone). 24 hours later, triplicate wells were treated with HGS ETR1 (40 ng/ml) in combination with compound. Cells were incubated in the presence of compound and HGS agonistic Trail receptor antibody, ETR1 (Mapatumamab, 40 ng/ml) for 72 hours. Metabolic viability of remaining cells was assessed by MTT (thiazolyl blue tetrazolium bromide, Sigma) assay.
(§1) EC50 values (50% cell survival in the presence of compound as compared to untreated controls) were calculated from survival curves using BioAssay software (CambridgeSoft, HCT116 and SKOV3 SAR) and GraphPad Prism (Graph Pad Software Inc., Synoviocyte SAR).

[2] = system: Rheumatoid arthritis human fibroblast-like synoviocytes (HFLS-RA); assay: Synoviocytes + Fas antibody cell survival assay (Cell Titer-Glo); conditions: with 300 ng/ml anti-human CD95 (Fas) antibody CH-11, 72 hours, read-out: EC50 synoviocyctes + FAS
Protocol: Rheumatoid arthritis human fibroblast-like synoviocytes (HFLS-RA, Cell Applications Inc.) were seeded in 96-well plates at 3000 cells per well in complete synoviocyte growth medium (Cell Applications Inc.) one day prior to treatment. Triplicate wells were treated for 72 hours compound in combination with 300 ng/ml anti-human CD95 (Fas) antibody (clone CH-11, Beckman Coulter/Immunotech). Cell survival was measured by Cell Titer-Glo Luminescent Assay (Promega).
as §1

[3] = system: Ovarian adenocarcinoma SKOV3 cells; assay: SKOV3 cell death assay (MTT, 72 hours); conditions: Homo sapiens, SK-OV-3, compound alone
Protocol: Ovarian adenocarcinoma SKOV3 cells were cultured as monolayers in McCoy's 5a medium (HyClone) supplemented with 2.2 g/L sodium bicarbonate (Gibco), 10% FBS (HyClone) and 1% penicillin/streptomycin (HyClone). Cells were seeded in 96 well plates at 5000 cells/well. After 24 hours in culture, cells were treated with compound. Cells were incubated in the presence of compound for 72 hours. Metabolic viability of remaining cells was assessed by MTT (thiazolyl blue tetrazolium bromide, Sigma) assay.
as §1

SMILES | EC50 [1] [nM] | EC50 [2] [nM] | EC50 [3] [nM]
CN[C@@H](C)C(=O)N[C@H](C(=O)N1CCC[C@H]1CN(CCc1ccccc1)C(=O)CNC(=O)c1ccc(-c2ccc(C(=O)NCC(=O)N(CCc3ccccc3)C[C@@H]3CCCN3C(=O)[C@@H](NC(=O)[C@H](C)NC)C3CCCCC3)cc2)cc1)C1CCCCC1 [Compound 2] | < 100 | < 100 | < 100
CN[C@@H](C)C(=O)N[C@H](C(=O)N1CCC[C@H]1CN(CCc1ccc(F)cc1)C(=O)c1ccc(-c2ccc(C(=O)N(CCc3ccc(F)cc3)C[C@@H]3CCCN3C(=O)[C@@H](NC(=O)[C@H](C)NC)C3CCCCC3)cc2)cc1)C1CCCCC1 [Compound 6] | < 100 | < 100 | < 100
CN[C@@H](C)C(=O)N[C@H](C(=O)N1CCC[C@H]1CN(CCc1ccc(F)cc1)C(=O)CNC(=O)c1ccc(-c2ccc(C(=O)NCC(=O)N(CCc3ccc(F)cc3)C[C@@H]3CCCN3C(=O)[C@@H](NC(=O)[C@H](C)NC)C3CCCCC3)cc2)cc1)C1CCCCC1 [Compound 8] | < 100 | < 100 | < 100
CN[C@@H](C)C(=O)N[C@H](C(=O)N1CCC[C@H]1CN(CCc1ccccc1)C(=O)CNC(=O)c1ccc(-c2ccc(C(=O)NCC(=O)N(CCc3ccccc3)C[C@@H]3CCCN3C(=O)[C@@H](NC(=O)[C@H](C)NC)C3CCCC3)cc2)cc1)C1CCCC1 [Compound 17] | < 100 | < 100 | < 100
CN[C@@H](C)C(=O)N[C@H](C(=O)N1CCC[C@H]1CN(CCc1ccccc1)C(=O)c1ccc(-c2ccc(C(=O)N(CCc3ccccc3)C[C@@H]3CCCN3C(=O)[C@@H](NC(=O)[C@H](C)NC)C3CCCCC3)cc2)cc1)C1CCCCC1 [Compound 18] | < 100 | < 100 | 
CN[C@@H](C)C(=O)N[C@H](C(=O)N1CCC[C@H]1CN(CCc1ccccc1)C(=O)c1ccc2cc(C(=O)N(CCc3ccccc3)C[C@@H]3CCCN3C(=O)[C@@H](NC(=O)[C@H](C)NC)C3CCC3)ccc2c1)C1CCC1 [Compound 19] | < 100 | < 100 | 
CN[C@@H](C)C(=O)N[C@H](C(=O)N1CCC[C@H]1CN(CCc1ccccc1)C(=O)c1ccc2cc(C(=O)N(CCc3ccccc3)C[C@@H]3CCCN3C(=O)[C@@H](NC(=O)[C@H](C)NC)C3CC3)ccc2c1)C1CC1 [Compound 20] | < 100 | > 100 | 
CN[C@@H](C)C(=O)N[C@H](C(=O)N1CCC[C@H]1CN(CCc1ccccc1)C(=O)c1ccc(-c2ccc(C(=O)N(CCc3ccccc3)C[C@@H]3CCCN3C(=O)[C@@H](NC(=O)[C@H](C)NC)C3CCC3)cc2)cc1)C1CCC1 [Compound 21] | < 100 | < 100 | 
CN[C@@H](C)C(=O)N[C@H](C(=O)N1CCC[C@H]1CN(CCc1ccccc1)C(=O)c1ccc(-c2ccc(C(=O)N(CCc3ccccc3)C[C@@H]3CCCN3C(=O)[C@@H](NC(=O)[C@H](C)NC)C3CC3)cc2)cc1)C1CC1 [Compound 22] | < 100 | < 100 | 
CN[C@@H](C)C(=O)N[C@H](C(=O)N1CCC[C@H]1CN(CCc1ccccc1)C(=O)c1ccc(-c2ccc(C(=O)N(CCc3ccccc3)C[C@@H]3CCCN3C(=O)[C@@H](NC(=O)[C@H](C)NC)C3CCCC3)cc2)cc1)C1CCCC1 [Compound 23] | < 100 | < 100 | 

From US20110171171A1, “BRIDGED SECONDARY AMINES AND USE THEREOF AS IAP BIR DOMAIN BINDING COMPOUNDS” (Aegera Therapeutics, Inc., priority 2008, published 2011)
